Experiments:
PKR R532W = PKR R532W (Homo sapiens, UniProt P30613, R532W); assay: PKR Mutant Assay, AC50 against PKR R532W; format: biochemical; conditions: mutant PKR R532W enzyme
Outline: (§1)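 Steps: compound added to wells, then reaction mix lacking ADP; 60 min room-temperature hold; ADP (0.22-1.65 mM) added to start; A340 monitored at room temperature via PEP/LDH/NADH coupling. Top final compound concentration 100 μM, 3-fold dilutions over 11 points.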

PKR WT [1] = target: T1, PKR WT (Homo sapiens, UniProt P30613); assay: PKR WT cell based AC50 assay; conditions: wild type PKR
PKR WT [2] = target: T1, PKR WT; assay: PKR WT enzymatic AC50 assay; format: biochemical; conditions: wild type PKR
Outline: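 Human PKR (WT or mutant, 80-400 ng/well) in 50 mM Tris pH 7.5, 100 mM KCl, 5 mM MgCl2, 1 mM DTT, 0.03% BSA with PEP 0.1-0.5 mM, NADH 180 uM and LDH, preincubated 60 min at room temperature with compound (11-point 3-fold series from 100 μM final, 1% DMSO). ADP 0.22-1.65 mM started reaction; A340 followed.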

PKR R510Q = PKR R510Q (Homo sapiens, UniProt P30613, R510Q); assay: PKR Mutant Assay, AC50 against PKR R510Q; format: biochemical; conditions: mutant PKR R510Q enzyme
Outline: as §1

T1 sequence (P30613 whole entry): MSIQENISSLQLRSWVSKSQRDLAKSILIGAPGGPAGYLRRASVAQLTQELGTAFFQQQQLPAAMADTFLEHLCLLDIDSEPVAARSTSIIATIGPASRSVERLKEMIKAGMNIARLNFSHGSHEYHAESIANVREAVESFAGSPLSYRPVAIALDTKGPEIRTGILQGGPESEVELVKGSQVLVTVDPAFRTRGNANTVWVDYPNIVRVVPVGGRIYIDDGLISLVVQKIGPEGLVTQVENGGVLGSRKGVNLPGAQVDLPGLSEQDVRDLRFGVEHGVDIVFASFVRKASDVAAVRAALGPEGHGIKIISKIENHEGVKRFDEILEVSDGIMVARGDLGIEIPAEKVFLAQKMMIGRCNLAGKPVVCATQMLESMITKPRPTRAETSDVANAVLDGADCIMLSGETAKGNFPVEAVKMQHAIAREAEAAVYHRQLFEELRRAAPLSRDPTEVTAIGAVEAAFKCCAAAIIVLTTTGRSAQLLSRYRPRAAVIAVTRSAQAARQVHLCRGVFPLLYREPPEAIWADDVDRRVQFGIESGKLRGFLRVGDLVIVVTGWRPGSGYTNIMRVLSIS
PKR R510Q, sequence (P30613 whole entry R510Q): as the sequence (P30613 whole entry) above, with R510Q counted along it
PKR R532W, sequence (P30613 whole entry R532W): as the sequence (P30613 whole entry) above, with R532W counted along it

AC50 (PKR R532W)	AC50 (PKR WT [1])	AC50 (PKR WT [2])	AC50 (PKR R510Q)	Structure (SMILES)
< 100 nM	< 100 nM	< 100 nM	< 100 nM	O=C(c1ccc(NS(=O)(=O)c2cccc3cccnc23)cc1)N1CCC(O)(c2ccc(F)c(Br)n2)CC1 [Compound 133, N-(4-(4-(6-bromo-5-fluoropyridin-2-yl)-4-hydroxypiperidine-1-carbonyl)phenyl)quinoline-8-sulfonamide]
< 100 nM	< 100 nM	< 100 nM	101 to 1000 nM	O=C(c1ccc(NS(=O)(=O)c2cccc3cccnc23)cc1Cl)N1CCC(O)(c2ccccc2Cl)CC1 [Compound 157, N-(3-chloro-4-(4-(2-chlorophenyl)-4-hydroxypiperidine-1-carbonyl)phenyl)quinoline-8-sulfonamide]
< 100 nM	< 100 nM	< 100 nM	< 100 nM	O=C(c1ccc(NS(=O)(=O)c2cccc3nccnc23)cc1)N1CCC(O)(CCC=C(F)F)CC1 [Compound 399, N-(4-(4-(4,4-difluorobut-3-en-1-yl)-4-hydroxypiperidine-1-carbonyl)phenyl)quinoxaline-5-sulfonamide]
< 100 nM	< 100 nM	< 100 nM	< 100 nM	O=C(c1ccc(NS(=O)(=O)c2cccc3cccnc23)cc1)N1CCC(O)(CC2CC2)CC1 [Compound 144, N-(4-(4-(cyclopropylmethyl)-4-hydroxypiperidine-1-carbonyl)phenyl)quinoline-8-sulfonamide]
< 100 nM	< 100 nM	< 100 nM	101 to 1000 nM	N#Cc1cc(NS(=O)(=O)c2cccc3cccnc23)ccc1C(=O)N1CCC(O)(c2ccccc2Cl)CC1 [Compound 209]
< 100 nM	< 100 nM	< 100 nM	< 100 nM	O=C(c1ccc(NS(=O)(=O)c2cccc3nccnc23)cc1)N1CCC(O)(Cc2ccccc2C(F)(F)F)CC1 [Compound 114, N-(4-(4-hydroxy-4-(2-(trifluoromethyl)benzyl)piperidine-1-carbonyl)phenyl)quinoxaline-5-sulfonamide]
< 100 nM	101 to 1000 nM	< 100 nM	< 100 nM	CC(CC1(O)CCN(C(=O)c2ccc(NS(=O)(=O)c3cccc4c(O)ncnc34)cc2)CC1)C(F)(F)F (centres unmarked) [Compound 431]
< 100 nM	< 100 nM	< 100 nM	< 100 nM	CC(C)(C)CC1(O)CCN(C(=O)c2ccc(NS(=O)(=O)c3ccc(F)c4cccnc34)cc2)CC1 [Compound 187, 5-fluoro-N-(4-(4-hydroxy-4-neopentylpiperidine-1-carbonyl)phenyl)quinoline-8-sulfonamide]
< 100 nM	< 100 nM	< 100 nM	101 to 1000 nM	O=C(c1ccc(NS(=O)(=O)c2cccc3cccnc23)cc1)N1CCC(O)(CCC(F)F)CC1 [Compound 204, N-(4-(4-(3,3-difluoropropyl)-4-hydroxypiperidine-1-carbonyl)phenyl)quinoline-8-sulfonamide]
< 100 nM	101 to 1000 nM	< 100 nM	101 to 1000 nM	CC(F)(F)CCC1(O)CCN(C(=O)c2ccc(NS(=O)(=O)c3cccc4scnc34)cc2)CC1 [Compound 387, N-(4-(4-(3,3-difluorobutyl)-4-hydroxypiperidine-1-carbonyl)phenyl)benzo[d]thiazole-4-sulfonamide]
< 100 nM	< 100 nM	< 100 nM	< 100 nM	Nc1nc2c(S(=O)(=O)Nc3ccc(C(=O)N4CCC(O)(c5cccc(F)c5F)CC4)cc3)cccc2s1 [Compound 422]
< 100 nM	< 100 nM	< 100 nM	< 100 nM	CC(CC1(O)CCN(C(=O)c2ccc(NS(=O)(=O)c3cccc4sc(N)nc34)cc2)CC1)C(F)(F)F (centres unmarked) [Compound 429]
< 100 nM	< 100 nM	< 100 nM	101 to 1000 nM	O=C(c1ccc(NS(=O)(=O)c2cccc3scnc23)cc1)N1CCC(O)(c2ccccc2Cl)CC1 [Compound 155, N-(4-(4-(2-chlorophenyl)-4-hydroxypiperidine-1-carbonyl)phenyl)benzo[d]thiazole-4-sulfonamide]
101 to 1000 nM	< 100 nM	< 100 nM	101 to 1000 nM	Nc1c(O)cccc1S(=O)(=O)Nc1ccc(C(=O)N2CCC(O)(c3ccccc3Cl)CC2)cc1 [Compound 382, 2-amino-N-(4-(4-(2-chlorophenyl)-4-hydroxypiperidine-1-carbonyl)phenyl)-3-hydroxybenzenesulfonamide]
101 to 1000 nM	< 100 nM	< 100 nM	< 100 nM	Nc1nc2c(S(=O)(=O)Nc3ccc(C(=O)N4CCC(O)(/C=C/CC(F)(F)F)CC4)cc3)cccc2s1 [Compound 425]
< 100 nM	< 100 nM	< 100 nM	101 to 1000 nM	O=C(c1ccc(NS(=O)(=O)c2cccc3cccnc23)cc1)N1CCC(O)(c2ccccc2F)CC1 [Compound 165, N-(4-(4-(2-fluorophenyl)-4-hydroxypiperidine-1-carbonyl)phenyl)quinoline-8-sulfonamide]
< 100 nM	< 100 nM	< 100 nM	< 100 nM	COc1ccccc1CC1(O)CCN(C(=O)c2ccc(NS(=O)(=O)c3cccc4cccnc34)cc2)CC1 [Compound 116, N-(4-(4-hydroxy-4-(2-methoxybenzyl)piperidine-1-carbonyl)phenyl)quinoline-8-sulfonamide]
101 to 1000 nM	101 to 1000 nM	101 to 1000 nM	101 to 1000 nM	O=C(c1ccc(NS(=O)(=O)c2cccc3c(O)ncnc23)cc1)N1CCC(O)(CCC(F)(F)F)CC1 [Compound 426]
< 100 nM	< 100 nM	< 100 nM	< 100 nM	CC(C)CCC1(O)CCN(C(=O)c2ccc(NS(=O)(=O)c3cccc4scnc34)cc2)CC1 [Compound 392, N-(4-(4-hydroxy-4-isopentylpiperidine-1-carbonyl)phenyl)benzo[d]thiazole-4-sulfonamide]
< 100 nM	< 100 nM	< 100 nM	101 to 1000 nM	O=C(c1ccc(NS(=O)(=O)c2cccc3cccnc23)cc1)N1CCC(O)(c2cnsc2)CC1 [Compound 377]
< 100 nM	< 100 nM	< 100 nM	< 100 nM	CC(C)CC1(O)CCN(C(=O)c2ccc(NS(=O)(=O)c3cccc4nccnc34)cc2)CC1 [Compound 160, N-(4-(4-hydroxy-4-isobutylpiperidine-1-carbonyl)phenyl)quinoxaline-5-sulfonamide]
< 100 nM	< 100 nM	< 100 nM	< 100 nM	Nc1nc2c(S(=O)(=O)Nc3ccc(C(=O)N4CCC(O)(c5ccccc5Cl)CC4)cc3)cccc2s1 [Compound 407, 2-amino-N-(4-(4-(2-chlorophenyl)-4-hydroxypiperidine-1-carbonyl)phenyl)benzo[d]thiazole-4-sulfonamide]
< 100 nM	101 to 1000 nM	< 100 nM	101 to 1000 nM	O=C(c1ccc(NS(=O)(=O)c2cccc3scnc23)cc1)N1CCC(O)(c2ccccc2C(F)F)CC1 [Compound 215, N-(4-(4-(2-(difluoromethyl)phenyl)-4-hydroxypiperidine-1-carbonyl)phenyl)benzo[d]thiazole-4-sulfonamide]

Source: US9108921B2, “Therapeutic compounds and compositions” (AGIOS PHARMACEUTICALS, INC, priority 2014, dated 2015)
